Patent publication US20060211705A1, “'N-(2-chloro-6-methylphenyl)-2-[[6-[4-(2-hydroxyethyl)-1-piperazinyl]-2-methyl-4-pyrimidinyl]amino]-5-thiazolecarboxamides metabolites” (priority 2005, published 2006)

How the values were obtained:
[1] = Metabolite profile of [14C] compound (I) in rat hepatocyte incubations; type: in vitro ADME, Sprague-Dawley rat; conditions: (Ia) 20 μM, 3 h, 37° C., ~2 million cells/mL; relative distribution in radiochromatographic profile
Protocol: The compound of formula (I) was used as the [^14C] compound (Ia) (30.4 μCi/mg, radiochemical purity 99.2%), as the monohydrate of the free base. The C-14 label was on the carbon in the 2-position of the thiazole ring.
Freshly isolated rat hepatocyte preparations were prepared from one male Sprague-Dawley rat. Rat Hepatocytes were prepared according to a standard procedure (Seglen, PO. Preparation of isolated rat liver cells. Methods Cell Biol., 1976, 13: 29-83). Cryopreserved cynomolgus monkey hepatocytes (male, pooled, n=6) and human hepatocytes (3 individual preparation) were purchased from In Vitro Technologies (Baltimore, Md.). Microsomes from male SD Rats (pooled, n=200, 20 mg/mL) and male cynomolgus monkeys (pooled, n=8, 20 mg/mL) were obtained from Xenotech LLC, Kansas City, Kans. Human liver microsomes (male, pooled, n=38) were from BD-Gentest, Woburn, Mass.
A 6 mM stock solution of the compound of formula (Ia) (the [^14C] of the compound of formula (I) was prepared at by dissolving 3.7 mg of the compound of formula (Ia) into 1:1 acetonitrile/DMSO. The 2 mM stock solution of the compound of formula (Ia) was obtained by diluting an aliquot of the 6 mM stock solution 3-fold with acetonitrile.
Rat hepatocyte suspensions were provided at concentrations of 9.1 million cells/mL with a viability of 90%. The cell suspension was diluted accordingly with modified Krebs-Henseleit buffer to give a final concentration of 2 million cells/mL.
Viability of the hepatocytes was checked using a Trypan Blue exclusion assay and a hemocytometer. A mixture of 0.1 mL of the hepatocyte suspension and 0.1 mL of trypan blue solution were diluted with 0.8 mL of Krebs-Henseleit buffer. The solution was gently mixed and plated onto a Levy hemocytometer (Hausser Scientific) and the viable cells (unstained) were counted under a light microscope. The viability of the hepatocytes ranged from 77% to 90% at the beginning of the incubations.
Hepatocyte incubations were conducted at 37° C. for 3 h in a NAPCO CO2 6000 incubator (VWR Scientific Products) under a 5% CO2 atmosphere using an orbital shaker at 90 rpm. For each incubation, the final concentration of compound (Ia) was 20 μM and the hepatocyte concentrations were ˜2 million cells/mL. A control incubation, in the absence of hepatocytes, was also performed for 3 h. The incubations were stopped by adding one volume of ice-cold acetonitrile. Each 0.5 mL incubation contained 0.1 M potassium phosphate buffer (pH 7.4), 2.5 mM MgCl2, 2 mg/mL microsomal protein, and 2.0 mM NADPH. The final substrate concentration was 20 μM. The mixtures were incubated in a shaking water bath at 37° C. for 15 min. Control incubations in the absence of microsomes or NADPH were performed for each species. The reactions were stopped with the addition of 1 mL of ice-cold acetonitrile.
HPLC was performed on a Waters Alliance™ system equipped with Waters 2695 pumps and a photodiode array detector (Waters 2996). A Phenomenex Synergy Polar-RP® column (4.6×250 mm, 5 micron) was used for metabolite separation. All HPLC analyses were performed at 1 mL/min flow rate at room temperature. Two HPLC mobile phase and gradient systems were used because all metabolites could not be completely separated on either of the individual HPLC systems. The first system consisted of (A) water with 0.1% formic acid and (B) acetonitrile with 0.1% formic acid as mobile phase. The linear gradient was as follows: 0 min, 20% B; 1 min, 20% B; 41 min, 35% B; 42 min, 90% B; 44 min, 90% B. The column was re-equilibrated at 20% B for 6 min before the next injection. The second HPLC system was used to separate certain co-eluting metabolites that could not be separated by the first system. The mobile phase consisted of (A) water with 0.1% triflouroacetic acid (TFA) and (B) acetonitrile with 0.1% TFA. The gradient was as follows: 0 min, 20% B; 1 min, 20% B; 51 min, 35% B; 52 min, 90% B; 54 min 90% B. The column was equilibrated at 20% B for 6 min prior to the next injection. […]

[2] = Radioactive metabolites in urine and bile after IV administration of [14C] compound (I) to bile-duct cannulated monkeys; type: in vivo, monkey; conditions: IV infusion 2 mg/kg; for Metabolites in BDC-Monkeys (0-72 hr), Bile, % Dose / Metabolites in BDC-Monkeys (0-72 hr), Bile, % Rad: bile 0-72 hr; for Metabolites in BDC-Monkeys (0-72 hr), Urine, % Dose / Metabolites in BDC-Monkeys (0-72 hr), Urine, % Rad (% of total radioactivity in sample): urine 0-72 hr
Protocol: A separate bile-duct cannulated (BDC) monkey study was also conducted. […]
The C-14 label was on the carbon-2 of the thiazole ring.
HPLC was performed on an Agilent 1100™ system equipped with binary pumps, autoinjector, and a column heater. A Phenomenex Synergy Polar-RP® column (4.6×250 mm, 5 micron) was used for metabolite separation. All HPLC analyses were performed at 1 mL/min flow rate at 35° C. The HPLC mobile phase consisted of (A) water with 0.1% formic acid and (B) acetonitrile with 0.1% formic acid.
Each fraction of column eluent was evaporated to dryness on a Savant Speed-Vac (Savant Instruments Inc., Holbrook, N.Y.) and counted for radioactivity with a Packard Top Count® microplate scintillation analyzer (Packard Biosciences, Downers Grove, Ill.).
The pooled monkey and human urine samples (3-5 mL) were extracted with 2 volumes of acetonitrile/acetone (1:1). The mixtures were vortex mixed, sonicated and centrifuged at 3500 rpm for 10 min. The supernatants were evaporated to dryness. The residue was suspended in 0.3-0.5 mL of 30% acetonitrile in water and centrifuged at 13000 rpm for 5 min. Aliquots of the supernatants were injected onto the HPLC or analyzed by LSC for radioactivity recovery. Pooled urine samples from BDC monkeys and rats were centrifuged at 13000 rpm for 10 min and injected onto the HPLC for profiling without further treatment.
A pooled bile sample (0-72 h) from BDC monkeys was diluted fifteen-fold with 20% acetonitrile in water with 0.1% formic acid. The diluted sample was centrifuged at 13000 rpm for 5 min. Aliquots of the supernatant was injected onto HPLC or analyzed by LSC for radioactivity recovery.
The LC/MS system used for analysis of plasma, urine, bile, and fecal samples consisted of an Agilent 1100™ HPLC system connected to a Finnigan LCQ-DecaXP mass spectrometer. Samples were analyzed using positive electrospray ionization. The capillary temperature used for analysis was 320° C., and the nitrogen gas flow rate, spray current, and voltages were adjusted to give maximum sensitivity. The HPLC conditions were described in section 3.3.1.
Counts per min (CPM) were determined on a Packard TopCount NXT microplate scintillation and luminescence counter. For each injection, the average CPM value (2-4 CPM) obtained from fractions between 2-3 min (column void) in the chromatogram was subtracted from the CPM value of each fraction. Biotransformation profiles were prepared by plotting the background subtracted CPM values against time-after-injection. Radioactivity peaks in the biotransformation profiles were reported as a percentage of the total radioactivity (after background subtraction) collected during the entire HPLC run.

Compound | % of Radioactivity in Hepatocytes, Rat [1] [%] | Metabolites in BDC-Monkeys (0-72 hr), Bile, % Dose [2] [%] | Metabolites in BDC-Monkeys (0-72 hr), Bile, % Rad [2] [%] | Metabolites in BDC-Monkeys (0-72 hr), Urine, % Dose [2] [%] | Metabolites in BDC-Monkeys (0-72 hr), Urine, % Rad (% of total radioactivity in sample) [2] [%]
Cc1nc(Nc2ncc(C(=O)Nc3c(C)cccc3Cl)s2)cc(N2CCNCC2)n1 [M4 (II)] | 1.6 | 0.5 | 0.7 | – | –
Cc1nc(Nc2ncc(C(=O)Nc3c(C)cc(O)cc3Cl)s2)cc(N2CCN(CCO)CC2)n1 [M20 (V)] | 1.1 | 2.4 | 3.5 | 0.3 | 2.7
Cc1nc(Nc2ncc(C(=O)Nc3c(C)cccc3Cl)s2)cc(N2CCN(CC(=O)O)CC2)n1 [M6 (IV), 2-(4-(6-(5-((2-Chloro-6-methylphenyl)carbamoyl)thiazol-2-ylamino)-2-methylpyrimidin-4-yl)piperazin-1-yl)acetic acid] | 4.9 | 6.3 | 9.4 | 0.3 | 2.8
Cc1nc(Nc2ncc(C(=O)Nc3c(Cl)cccc3CO)s2)cc(N2CCN(CCO)CC2)n1 [M24 (VI), N-(2-chloro-6-(hydroxymethyl)phenyl)-2-(6-(4-(2-hydroxyethyl)piperazin-1-yl)-2-methylpyrimidin-4-ylamino)thiazole-5-carboxamide] | 1.1 | 3.0 | 4.4 | 0.1 | 1.4
Cc1nc(Nc2ncc(C(=O)Nc3c(C)cccc3Cl)s2)cc(N2CC[N+]([O-])(CCO)CC2)n1 [M5 (III)] | 2.7 | 5.0 | 7.4 | 7.0 | 70.7
Cc1nc(Nc2ncc(C(=O)Nc3c(C)cccc3Cl)s2)cc(N2CCN(CCO)CC2)n1 [Parent (I), N-(2-Chloro-6-methylphenyl)-2-[[6-[4-(2-hydroxyethyl)-1-piperazinyl]-2-methyl-4-pyrimidinyl]amino]-5-thiazolecarboxamide] | 88.8 | 3.2 | 4.7 | 0.1 | 1.4
